Test results published in US20230058733A1, “OGA INHIBITOR COMPOUNDS” (JANSSEN PHARMACEUTICA NV, priority 2019, published 2023).

How the values were obtained:
[1] = target: T1, recombinant human Meningioma Expressed Antigen 5 (MGEA5), also referred to as O-GlcNAcase (OGA) (Homo sapiens, UniProt O60502); experiment: OGA biochemical assay (inhibition of FM-GlcNAc hydrolysis, fluorescence); conditions: full length OGA 2 nM, FM-GlcNAc 100 uM; for IC50: pH 7.2, 6 h at room temperature, read-out: Enzymatic hOGA, pIC50 (converted); for Emax: relative to high and low controls, read-out: Enzymatic Emax (%)
T1 construct: Full length OGA enzyme was purchased at OriGene (cat #TP322411); purchased OriGene TP322411
T1 sequence (O60502 1-916): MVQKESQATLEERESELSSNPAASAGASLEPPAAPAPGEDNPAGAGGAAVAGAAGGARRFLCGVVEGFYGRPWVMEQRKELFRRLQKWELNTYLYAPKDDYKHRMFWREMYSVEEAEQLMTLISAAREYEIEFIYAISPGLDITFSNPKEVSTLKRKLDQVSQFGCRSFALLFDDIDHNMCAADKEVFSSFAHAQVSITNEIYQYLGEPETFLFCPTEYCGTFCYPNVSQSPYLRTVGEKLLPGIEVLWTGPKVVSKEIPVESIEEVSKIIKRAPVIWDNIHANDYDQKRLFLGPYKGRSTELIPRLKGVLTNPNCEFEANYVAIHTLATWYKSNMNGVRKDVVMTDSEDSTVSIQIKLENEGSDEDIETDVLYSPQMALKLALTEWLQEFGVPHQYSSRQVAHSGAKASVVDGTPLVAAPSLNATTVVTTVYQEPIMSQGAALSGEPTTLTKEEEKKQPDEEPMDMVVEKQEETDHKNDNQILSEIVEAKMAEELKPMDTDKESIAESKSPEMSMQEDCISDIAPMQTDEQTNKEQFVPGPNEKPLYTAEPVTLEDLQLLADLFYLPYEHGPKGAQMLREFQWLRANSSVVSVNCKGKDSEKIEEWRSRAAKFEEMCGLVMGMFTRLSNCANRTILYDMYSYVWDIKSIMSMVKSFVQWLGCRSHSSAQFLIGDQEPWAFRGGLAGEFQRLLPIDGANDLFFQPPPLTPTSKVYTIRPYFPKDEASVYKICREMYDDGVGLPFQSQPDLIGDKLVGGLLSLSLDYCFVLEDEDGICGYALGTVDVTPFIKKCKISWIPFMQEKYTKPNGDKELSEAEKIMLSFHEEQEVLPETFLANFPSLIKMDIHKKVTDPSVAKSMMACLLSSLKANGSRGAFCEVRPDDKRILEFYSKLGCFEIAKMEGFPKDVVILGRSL
From the text: The assay is based on the inhibition of the hydrolysis of fluorescein mono-β-D-N-Acetyl-Glucosamine (FM-GlcNAc) (Mariappa et al. 2015, Biochem J 470:255) by the recombinant human Meningioma Expressed Antigen 5 (MGEA5), also referred to as O-GlcNAcase (OGA). The hydrolysis FM-GlcNAc (Marker Gene technologies, cat #M1485) results in the formation of […] and fluorescein. The fluorescence of the latter can be measured at excitation wavelength 485 nm and emission wavelength 538 nm. An increase in enzyme activity results in an increase in fluorescence signal. Full length OGA enzyme was purchased at OriGene (cat #TP322411). The enzyme was stored in 25 mM Tris.HCl, pH 7.3, 100 mM glycine, 10% glycerol at −20° C. Thiamet G and GlcNAcStatin were tested as reference compounds (Yuzwa et al. 2008 Nature Chemical Biology 4:483; Yuzwa et al. 2012 Nature Chemical Biology 8:393). The assay was performed in 200 mM Citrate/phosphate buffer supplemented with 0.005% Tween-20. 35.6 g Na2HPO4 2 H2O (Sigma, #C0759) were dissolved in 1 L water to obtain a 200 mM solution. 19.2 g citric acid (Merck, #1.06580) was dissolved in 1 L water to obtain a 100 mM solution. pH of the sodiumphosphate solution was adjusted with the citric acid solution to 7.2. The buffer to stop the reaction consists of a 500 mM Carbonate buffer, pH 11.0. 734 mg FM-GlcNAc were dissolved in 5.48 mL DMSO to obtain a 250 mM solution and was stored at −20° C. OGA was used at a 2 nM concentration and FM-GlcNAc at a 100 uM final concentration. Dilutions were prepared in assay buffer.
50 nl of a compound dissolved in DMSO was dispensed on Black Proxiplate TM 384 Plus Assay plates (Perkin Elmer, #6008269) and 3 μl fl-OGA enzyme mix added subsequently. Plates were pre-incubated for 60 min at room temperature and then 2 μl FM-GlcNAc substrate mix added. […] Plates were briefly centrifuged for 1 min at 1000 rpm and incubate at room temperature for 6 h. To stop the reaction 5 μl STOP buffer were added and plates centrifuge again 1 min at 1000 rpm. Fluorescence was quantified in the Thermo Scientific Fluoroskan Ascent or the PerkinElmer EnVision with excitation wavelength 485 nm and emission wavelength 538 nm.
For analysis a best-fit curve is fitted by a minimum sum of squares method. From this an IC50 value and Hill coefficient was obtained. High control (no inhibitor) and low control (saturating concentrations of standard inhibitor) were used to define the minimum and maximum values.

hOGA = target: T2, hOGA (Homo sapiens, UniProt O60502); experiment: OGA cellular assay (ICC detection of O-GlcNAcylated proteins in HEK293 cells inducible for P301L mutant human Tau); assay type: cell-based; conditions: for EC50: HEK293 cells inducible for P301L mutant human Tau (2N4R), 6 hours incubation, O-GlcNAcylation readout at 488 nm, read-out: Cellular hOGA, pEC50 (converted); for Emax: HEK293 cells inducible for P301L mutant human Tau, maximum defined by Thiamet G at 200 uM
T2 construct: HEK293 cells inducible for P301L mutant human Tau (isoform 2N4R) were established at Janssen; endogenous in cells; host or cells: HEK293 cells inducible for P301L mutant human Tau (2N4R)
T2 sequence (O60502 1-916): T1 sequence (O60502 1-916)
Experimental: HEK293 cells inducible for P301L mutant human Tau (isoform 2N4R) were established at Janssen. Thiamet-G was used for both plate validation (high control) and as reference compound (reference EC50 assay validation). OGA inhibition is evaluated through the immunocytochemical (ICC) detection of O-GlcNAcylated proteins by the use of a monoclonal antibody (CTD110.6; Cell Signaling, #9875) detecting 0-GlcNAcylated residues as previously described (Dorfmueller et al. 2010 Chemistry & biology, 17:1250). Inhibition of OGA will result in an increase of O-GlcNAcylated protein levels resulting in an increased signal in the experiment. Cell nuclei are stained with Hoechst to give a cell culture quality control and a rough estimate of immediate compounds toxicity, if any. ICC pictures are imaged with a Perkin Elmer Opera Phenix plate microscope and quantified with the provided software Perkin Elmer Harmony 4.1.
Cells were propagated in DMEM high Glucose (Sigma, #D5796) following standard procedures. 2 days before the cell assay cells are split, counted and seeded in Poly-D-Lysine (PDL) coated 96-wells (Greiner, #655946) plate at a cell density of 12,000 cells per cm^2 (4,000 cells per well) in 100 μl of Assay Medium (Low Glucose medium is used to reduce basal levels of GlcNAcylation) (Park et al. 2014 The Journal of biological chemistry 289:13519). At the day of compound test medium from assay plates was removed and replenished with 90[d of fresh Assay Medium. 10 μl of compounds at a 10 fold final concentration were added to the wells. Plates were centrifuged shortly before incubation in the cell incubator for 6 hours. DMSO concentration was set to 0.2%. Medium is discarded by applying vacuum. For staining of cells medium was removed and cells washed once with 100 μl D-PBS (Sigma, #D8537). From next step onwards unless other stated assay volume was always 50 μl and incubation was performed without agitation and at room temperature. Cells were fixed in 50 μl of a 4% paraformaldehyde (PFA, Alpha aesar, #043368) PBS solution for 15 minutes at room temperature. […] Before analysis samples were washed 2 times manually for 5 minutes in ICC base buffer.
Imaging is performed using Perkin Elmer Phenix Opera using a water 20× objective and recording 9 fields per well. Intensity readout at 488 nm is used as a measure of O-GlcNAcylation level of total proteins in wells. To assess potential toxicity of compounds nuclei were counted using the Hoechst staining. IC50-values are calculated using parametric non-linear regression model fitting. As a maximum inhibition Thiamet G at a 200 uM concentration is present on each plate. In addition, a concentration response of Thiamet G is calculated on each plate.

Structure (SMILES) | IC50 [1] [µM] | Emax [1] [%] | EC50 (hOGA) [µM] | Emax (hOGA) [%]
Cc1cc(C(F)(F)F)cc(C)c1Nc1nncc2c1ccn2CC(=O)N(C)C [Co. No. 1] | 0.0151 | 101 | 0.024 | 68
Cc1ccnc(C(C)C)c1Nc1nncc2c1ccn2CC(=O)N(C)C [Co. No. 2] | 0.0214 | 98 | 0.138 | 138
Cc1cc(OC(F)(F)F)cc(Cl)c1Nc1nncc2c1ccn2CC(=O)N(C)C [Co. No. 3] | 0.00631 | 101 | 0.0158 | 108
Cc1cc(Cl)cc(C(F)(F)F)c1Nc1nncc2c1ccn2CC(=O)N(C)C [Co. No. 4] | 0.0191 | 100 | 0.0741 | 63
Cc1cc(C)c(Nc2nncc3c2ccn3CC(=O)N(C)C)c(C)c1 [Co. No. 5] | 0.00427 | 99 | 0.0214 | 92
